According to US9730906B2, “α-derivatives of cis-monounsaturated fatty acids for use as medicines” (UNIVERSITAT DE LES ILLES BALEARS, priority 2008, dated 2017):

Tests used:
[1] = system: human brain cancer (SF767), human lung cancer cells (A549), human pancreas cancer cells (BXPC3); test: Na-OHOD alone and combined with anti-tumour pharmaceuticals in immune-deprived mice with human tumours; format: in vivo; conditions: Na-OHOD 600 mg/kg
Experimental: FIG. 8A. Effect of Na-OHOD (sodium salt of OHOD) and combinations with various pharmaceuticals: temozolomide (TMZ), erlotinib, gemcitabine and cisplatin (cis-Pt) on various types of human cancers in models. Effect of treatments with vehicle (Control), temozolomide (TMZ, 80 mg/kg), Na-OHOD (OHOD, 600 mg/kg) and TMZ plus Na-OHOD (simultaneously at the same doses) for 60 days in immune-deprived mice infected with human brain cancer (SF767).
FIG. 8B. Effect of Na-OHOD (sodium salt of OHOD) and combinations with various pharmaceuticals: temozolomide (TMZ), erlotinib, gemcitabine and cisplatin (cis-Pt) on various types of human cancers in models. Idem, with Na-OHOD (OHOD, 600 mg/kg), erlotinib (Erlotinib, 40 mg/kg), cisplatin (cis-Pt, 100 mg/kg), plus erlotinib (OHO Er) or Na-OHOD plus cisplatin (OHO Pt) in nude mice infected with human lung cancer cells (A549).
FIG. 8C. Effect of Na-OHOD (sodium salt of OHOD) and combinations with various pharmaceuticals: temozolomide (TMZ), erlotinib, gemcitabine and cisplatin (cis-Pt) on various types of human cancers in models. Idem with Na-OHOD (OHOD, 600 mg/kg), Gemcitabine (Gemcitab, 40 mg/kg) or Na-OHOD plus Gemcitabine (OHO Gem) using the same doses in nude mice infected with human pancreas cancer cells (BXPC3). […]

[2] = system: MCF7; test: Effect of OHOD on cancer cells in culture (Table 2); format: cell-based, human; set-up: key: + [inhibition of growth]; ++ [total halt of growth]; +++ [total removal of tumour cells]; conditions: MCF7, Breast
Experimental: (§1) Also, a series of α-derivatives of cis-monounsaturated fatty acids were used to investigate their effectiveness in cancer treatment. Two types of experiment were performed. Firstly, the dependency of the anti-tumour effect on concentration was investigated. To perform these experiments, human lung cancer cells (A549) were cultivated in RPMI medium, supplemented with 10% foetal bovine […], 10 mM Hepes (pH 7.4), 2 mM glutamine, 2 g/l bicarbonate, 1 g/l glucose, 100 units/ml penicillin, 0.1 mg/ml streptomycin, 0.25 μg/ml Amphotericin B, at 37° C. and in the presence of 5% CO2. In a first experimental series, these cells were treated with various concentrations (0-400 μM) of OHOD and MOD11 and the number of cells was determined by flow cytometry (FIG. 3A). […] In a second series, the anti-tumour effectiveness on A549 lung cancer cells was investigated at a single concentration (150 μM) and a time of 48 hours (FIG. 3B). […] Obviously, among the previous molecules, some lacked both modifications on the α-carbon and the double bond in cis configuration (EO, HDO, ODO) and had no therapeutic effect.
(§2) In a second experimental series, designed to discover whether these molecules are effective in treatment of different types of tumours, the effect of OHOD at various concentrations on human cells of different types of cancer was studied. These experiments were performed as described before, except that the M220 and HT-29 cell lines were cultured in DMEM medium and the MDA-MB-231 line was incubated in Leibowitz L-15 medium supplemented with 15% foetal bovine […]. […] Where the nature of the tumour process requires, application can be topical (use on the skin of active products for the treatment of melanoma and other cutaneous abnormalities of cancerous nature), which can be considered as cosmetic treatments when attempts are made to correct aesthetic defects.

[3] = system: NCI-H460; test: as above; format: cell-based, human; set-up: key: + [inhibition of growth]; ++ [total halt of growth]; +++ [total removal of tumour cells]; conditions: NCI-H460, Lung (CPNM)
Experimental: as §1, §2

[4] = system: SF-268; test: as above; format: cell-based, human; set-up: key: + [inhibition of growth]; ++ [total halt of growth]; +++ [total removal of tumour cells]; conditions: SF-268, Glioma
Experimental: as §1, §2

Structure (SMILES) | anti-tumour effectiveness of Na-OHOD alone vs temozolomide, erlotinib, gemcitabine, cisplatin [1] | Anti-tumour effect [2] | Anti-tumour effect [3] | Anti-tumour effect [4]
CCCCCCCC/C=C\CCCCCCC(O)C(=O)[O-].[Na+] (stereo not shown) [Na-OHOD] | more effective | – | – | –
CCCCCCCC/C=C\CCCCCCC(O)C(=O)O (stereo not drawn) [OHOD, α-Hydroxy-cis-Δ9-octadecenoic] | – | +++ | +++ | +++
